The text below walks through data of US12642805B2, “Use of oxygenated cholesterol sulfates for treating at least one of insulin resistance, diabetes, and prediabetes” (Medicis Pharmaceutical Corporation, priority 2020, dated 2026).

Read-outs that look alike come from different tables or passages of the source.

Data set [1] deals with DNMT1/3a/3b and 9 other epigenetic enzymes. The experiment in a line: epigenetic enzyme activity panel. In kind it is biochemical. An excerpt:
The major epigenetic regulation includes DNA and histone methylation, demethylation, acetylation, and deacetylation. The enzymes involved in the process are DNA and histone methyltransferases/demethylases, and acetyltransferases/deacetylases.

The nature of data set [2]: metabolite profiling of plasma, urine, feces after intravenous dose. To be noted: rats 10 mg/kg intravenous 25HC3S.
Method: Samples were profiled using high performance liquid chromatography with radiodetection and metabolic characterization was performed using mass spectrometry and tandem mass spectrometry analysis.
Data set [3] can be described thus: single oral dose pharmacokinetic study in healthy and NASH subjects. Format: in vivo, human. To be noted: for AUC(0-t) / AUC(0-inf) / Cmax / half-life / Tmax / Vd/F: human, plasma, po. The method, then: The present Example was a randomized, dose ranging, single dose safety and pharmacokinetic study of 25HC3S administered to subjects with NASH and control healthy subjects. […] For each cohort, 10 subjects with NASH were enrolled which were further classified into cirrhotic and non-cirrhotic. Each subject received only one dose of study treatment. The second cohort was dosed after a review of safety and tolerability data from Cohort 1.

The mark [4] stands for this setting: 50 mg single oral dose, Healthy.
The mark [5] stands for this setting: 200 mg single oral dose, Healthy.

As for `CC(C)CCC[C@@H](C)[C@H]1CC[C@H]2[C@@H]3CC=C4C[C@@H](O)CC[C@]4(C)[C@H]3CC[C@]12C` [Xol, Cholesterol], in data set [1], the “effect on enzymatic activities” value is on record as “did not significantly affect enzymatic activities”.

As to `C[C@@H](CO)CCC[C@@H](C)[C@H]1CC[C@H]2[C@@H]3CC=C4C[C@@H](O)CC[C@]4(C)[C@H]3CC[C@]12C` [27HC, 27-Hydroxycholesterol], the “effect on enzymatic activities” value in data set [1] was “no effect on other enzymes”.

For the compound desmosterol sulfate, in data set [2], the “detection in plasma, urine, or feces samples” value is “Neither desmosterol sulfate nor 25-hydroxycholesterol was detected”.

Consider `C[C@H](CCCC(C)(C)O)[C@H]1CC[C@H]2[C@@H]3CC=C4C[C@@H](OS(=O)(=O)[O-])CC[C@]4(C)[C@H]3CC[C@]12C.[Na+]` [25HC3S sodium, 25-hydroxycholesterol-3-sulfate sodium], for which the “CL/F, Geometric Mean” value turned out to be 118.11 L/h in data set [3] (setting [4]); 82.19 L/h in data set [3] (50 mg single oral dose, NASH); 169.32 L/h in data set [3] (setting [5]); 141.66 L/h in data set [3] (200 mg single oral dose, NASH). Moreover, the “CL/F, Mean” value in data set [3] (setting [4]) came to 122.35 L/h; in data set [3] (50 mg single oral dose, NASH), 85.29 L/h; in data set [3] (setting [5]) it was 171.25 L/h; in data set [3] (200 mg single oral dose, NASH), 143.19 L/h. For the same compound, the AUC(0-t) in data set [3] (50 mg, 50 mg single oral dose, Healthy, read-out: AUC0-12, Geometric Mean) came out at 497 ng·h/mL; in data set [3] (50 mg, 50 mg single oral dose, Healthy, read-out: AUC0-12, Mean), 528 ng·h/mL; in data set [3] (50 mg, 50 mg single oral dose, Healthy, read-out: AUC0-last, Geometric Mean) it was 450 ng·h/mL; in data set [3] (50 mg, 50 mg single oral dose, Healthy, read-out: AUC0-last, Mean), 477 ng·h/mL; in data set [3] (50 mg, 50 mg single oral dose, NASH, read-out: AUC0-12, Geometric Mean), 598 ng·h/mL; in data set [3] (50 mg, 50 mg single oral dose, NASH, read-out: AUC0-12, Mean), 623 ng·h/mL. Further, the AUC(0-t) came to 476 ng·h/mL in data set [3] (50 mg, 50 mg single oral dose, NASH, read-out: AUC0-last, Geometric Mean); 513 ng·h/mL in data set [3] (50 mg, 50 mg single oral dose, NASH, read-out: AUC0-last, Mean); 1160 ng·h/mL in data set [3] (200 mg, 200 mg single oral dose, Healthy, read-out: AUC0-12, Geometric Mean); 1180 ng·h/mL in data set [3] (200 mg, 200 mg single oral dose, Healthy, read-out: AUC0-12, Mean); 1170 ng·h/mL in data set [3] (200 mg, 200 mg single oral dose, Healthy, read-out: AUC0-last, Geometric Mean); 1190 ng·h/mL in data set [3] (200 mg, 200 mg single oral dose, Healthy, read-out: AUC0-last, Mean). For the same compound, the AUC(0-t) in data set [3] (200 mg, 200 mg single oral dose, NASH, read-out: AUC0-12, Geometric Mean) came out at 1500 ng·h/mL; in data set [3] (200 mg, 200 mg single oral dose, NASH, read-out: AUC0-12, Mean) it was 1540 ng·h/mL; in data set [3] (200 mg, 200 mg single oral dose, NASH, read-out: AUC0-last, Geometric Mean), 1540 ng·h/mL; in data set [3] (200 mg, 200 mg single oral dose, NASH, read-out: AUC0-last, Mean), 1580 ng·h/mL. Further, the AUC(0-inf) amounted to 423 ng·h/mL in data set [3] (50 mg, 50 mg single oral dose, Healthy, read-out: AUCinf, Geometric Mean); 439 ng·h/mL in data set [3] (50 mg, 50 mg single oral dose, Healthy, read-out: AUCinf, Mean); 608 ng·h/mL in data set [3] (50 mg, 50 mg single oral dose, NASH, read-out: AUCinf, Geometric Mean); 636 ng·h/mL in data set [3] (50 mg, 50 mg single oral dose, NASH, read-out: AUCinf, Mean); 1180 ng·h/mL in data set [3] (200 mg, 200 mg single oral dose, Healthy, read-out: AUCinf, Geometric Mean); 1190 ng·h/mL in data set [3] (200 mg, 200 mg single oral dose, Healthy, read-out: AUCinf, Mean). Moreover, the AUC(0-inf) in data set [3] (200 mg, 200 mg single oral dose, NASH, read-out: AUCinf, Geometric Mean) is 1410 ng·h/mL; in data set [3] (200 mg, 200 mg single oral dose, NASH, read-out: AUCinf, Mean) it was 1430 ng·h/mL. The Cmax in data set [3] (50 mg, 50 mg single oral dose, Healthy, read-out: Cmax, Geometric Mean) amounted to 90.9 ng/mL; in data set [3] (50 mg, 50 mg single oral dose, Healthy, read-out: Cmax, Mean), 94 ng/mL; in data set [3] (50 mg, 50 mg single oral dose, NASH, read-out: Cmax, Geometric Mean) it was 108 ng/mL; in data set [3] (50 mg, 50 mg single oral dose, NASH, read-out: Cmax, Mean) it was 113 ng/mL; in data set [3] (200 mg, 200 mg single oral dose, Healthy, read-out: Cmax, Geometric Mean), 256 ng/mL; in data set [3] (200 mg, 200 mg single oral dose, Healthy, read-out: Cmax, Mean), 260 ng/mL. Further, the Cmax in data set [3] (200 mg, 200 mg single oral dose, NASH, read-out: Cmax, Geometric Mean) came to 319 ng/mL; in data set [3] (200 mg, 200 mg single oral dose, NASH, read-out: Cmax, Mean), 333 ng/mL. Besides, the half-life in data set [3] (50 mg, 50 mg single oral dose, Healthy, read-out: T1/2, Geometric Mean (converted)) is 113 min; in data set [3] (50 mg, 50 mg single oral dose, Healthy, read-out: T1/2, Mean (converted)), 114 min; in data set [3] (50 mg, 50 mg single oral dose, NASH, read-out: T1/2, Geometric Mean (converted)) it was 100 min; in data set [3] (50 mg, 50 mg single oral dose, NASH, read-out: T1/2, Mean (converted)), 100 min; in data set [3] (200 mg, 200 mg single oral dose, Healthy, read-out: T1/2, Geometric Mean (converted)), 103 min; in data set [3] (200 mg, 200 mg single oral dose, Healthy, read-out: T1/2, Mean (converted)), 105 min. Also, the half-life in data set [3] (200 mg, 200 mg single oral dose, NASH, read-out: T1/2, Geometric Mean (converted)) is 132 min; in data set [3] (200 mg, 200 mg single oral dose, NASH, read-out: T1/2, Mean (converted)), 151 min. Also, the Tmax amounted to 2.83 h in data set [3] (50 mg, 50 mg single oral dose, Healthy, read-out: Tmax, Geometric Mean); 3.01 h in data set [3] (50 mg, 50 mg single oral dose, Healthy, read-out: Tmax, Mean); 2.31 h in data set [3] (50 mg, 50 mg single oral dose, NASH, read-out: Tmax, Geometric Mean); 2.41 h in data set [3] (50 mg, 50 mg single oral dose, NASH, read-out: Tmax, Mean); 2.53 h in data set [3] (200 mg, 200 mg single oral dose, Healthy, read-out: Tmax, Geometric Mean); 2.67 h in data set [3] (200 mg, 200 mg single oral dose, Healthy, read-out: Tmax, Mean). Further, the Tmax in data set [3] (200 mg, 200 mg single oral dose, NASH, read-out: Tmax, Geometric Mean) was found to be 2.65 h; in data set [3] (200 mg, 200 mg single oral dose, NASH, read-out: Tmax, Mean), 2.91 h. Besides, the Vd/F in data set [3] (50 mg, 50 mg single oral dose, Healthy, read-out: Vz/F, Geometric Mean) was found to be 322 L; in data set [3] (50 mg, 50 mg single oral dose, Healthy, read-out: Vz/F, Mean), 325 L; in data set [3] (50 mg, 50 mg single oral dose, NASH, read-out: Vz/F, Geometric Mean), 198 L; in data set [3] (50 mg, 50 mg single oral dose, NASH, read-out: Vz/F, Mean), 203 L; in data set [3] (200 mg, 200 mg single oral dose, Healthy, read-out: Vz/F, Geometric Mean) it was 420 L; in data set [3] (200 mg, 200 mg single oral dose, Healthy, read-out: Vz/F, Mean), 434 L. In addition, the Vd/F in data set [3] (200 mg, 200 mg single oral dose, NASH, read-out: Vz/F, Geometric Mean) turned out to be 449 L; in data set [3] (200 mg, 200 mg single oral dose, NASH, read-out: Vz/F, Mean), 540 L.

Take `CC(C)CCC[C@@H](C)[C@H]1CC[C@H]2[C@@H]3CC=C4C[C@@H](OS(=O)(=O)O)CC[C@]4(C)[C@H]3CC[C@]12C` [Xol3S, Cholesterol 3-Sulfate]: in data set [1], the “effect on enzymatic activities” value was “did not significantly affect enzymatic activities”.
